Biological target: T1, DHPR (Escherichia coli, UniProt P04036)
T1 construct: made in house; host or cells: E. coli BL21 (DE3) Gold
Experiment: binding of ligands to DHPR (dissociation constants)
Design: species or system E. coli
Description: The resonance assignments for DHPR residues Thr80, Thr104 and Met17 were obtained as follows. Differential chemical shift perturbation was observed by comparing the spectra of MIT-DHPR bound to 2,6-pyridinedicarboxylate (PDC) and the spectra of MIT-DHPR bound to 4-Cl PDC. Distinct changes in chemical shift for only one of the methionine ^13C^ε/^1H^ε resonances was detected, which therefore identified the signals as being associated with M17 as shown in FIG. 1D. Both PDC and 4-Cl PDC bound to DHPR with micromolar dissociation constants, so that, at the concentrations used, the protein was saturated in both samples. Therefore, the resultant chemical shift differences originate solely from the small perturbation introduced by binding slightly different ligands. Similarly, resonance assignments were obtained for residues T104 and […] with differential chemical shifts comparing spectra obtained for complexes formed with NADH and 3-acetyl pyridine NADH.

T1 sequence (P04036 whole entry): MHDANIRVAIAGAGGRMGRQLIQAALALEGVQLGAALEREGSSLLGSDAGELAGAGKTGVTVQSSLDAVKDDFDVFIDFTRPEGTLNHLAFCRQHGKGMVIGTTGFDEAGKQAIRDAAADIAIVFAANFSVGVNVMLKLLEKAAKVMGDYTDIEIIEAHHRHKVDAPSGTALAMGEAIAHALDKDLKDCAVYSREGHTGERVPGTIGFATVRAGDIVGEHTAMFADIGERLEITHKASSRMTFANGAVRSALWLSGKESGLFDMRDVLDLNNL

SMILES	dissociation constants
O=C(O)c1cccc(C(=O)O)n1 [PDC, 2,6-pyridinedicarboxylate]	micromolar
O=C(O)c1cc(Cl)cc(C(=O)O)n1 [4-Cl PDC]	micromolar
